Data published in patent publication US6057447A, “Quinoline sulfide derivatives” (Zenyaku Kogyo Kabushiki Kaisha, priority 1996, dated 2000).
In brackets after ≈: the same amount, converted by molar mass.

What follows are compounds tested on Helicobacter pylori standard strain ATCC 43526 (NCTC 11916) (assay: Antibacterial Test 1: MIC against Helicobacter pylori, agar plate dilution method (anaerobic MIC method)). Conditions: 72 h, Hp ATCC 43526, agar plate dilution, 37° C., 3 days.
Format: cell-based

SMILES	MIC [µg/mL]
CC(C)(C)OC(=O)N1CCN(c2ccc(C(=O)CSc3ccnc4ccccc34)cc2Br)CC1 [Compound 14, 4-[2-[3-Bromo-4-(4-tert-butoxycarbonyl-1-piperazinyl)-phenyl]-2-oxoethylthio]quinoline]	0.0016 (≈ 0.00295 µM)
COc1ccc(Oc2ccc(C(=O)CSc3ccnc4ccccc34)cc2)cc1 [Compound 15, 4-[2-[4-(4-Methoxyphenoxy)phenyl]-2-oxoethylthio]-quinoline]	0.1 (≈ 0.249 µM)
CC(C)(C)C(=O)Nc1ccc(C(=O)CSc2ccnc3ccccc23)cc1 [Compound 19, 4-[2-(4-Pivaloylaminophenyl)-2-oxoethylthio]quinoline]	0.1 (≈ 0.264 µM)
CC(C)(C)OC(=O)Nc1ccc(CCSc2ccnc3ccccc23)cc1 [Compound 24, 4-[2-(4-tert-Butoxycarbonylaminophenyl)ethylthio]-quinoline]	0.2 (≈ 0.526 µM)
c1ccc(COc2ccc(CCSc3ccnc4ccccc34)cc2)cc1 [Compound 25, 4-[2-(4-Benzyloxyphenyl)ethylthio]quinoline]	0.1 (≈ 0.269 µM)
CC(C)(C)OC(=O)Nc1ccc(C(=O)CSc2ccnc3ccccc23)cc1 [Compound 30, 4-[2-(4-tert-Butoxycarbonylaminophenyl)-2-oxoethylthio]-quinoline]	0.1 (≈ 0.253 µM)
CSc1ccc2c(SC(C)c3ccc(N(C)C)cc3)ccnc2c1 (centres unmarked) [Compound 33, 4-[1-(4-Dimethylaminophenyl)ethylthio]-7-methylthio-quinoline]	0.2 (≈ 0.564 µM)
COc1ccc2c(SCc3ccc(NCC(C)C)cc3)ccnc2c1 [Compound 35, 4-(4-Isobutylaminobenzylthio)-7-methoxyquinoline]	0.39 (≈ 1.11 µM)
CCNc1ccc(CSc2ccnc3cc(SC)ccc23)cc1 [Compound 36, 4-(4-Ethylaminobenzylthio)-7-methylthioquinoline]	0.1 (≈ 0.294 µM)
CSc1ccc2c(SCc3ccc(NCCC(C)CC(C)(C)C)cc3)ccnc2c1 (centres unmarked) [Compound 37, 4-[4-(3,5,5-Trimethylhexylamino)benzylthio]-7-methylthioquinoline]	0.2 (≈ 0.456 µM)
CSc1ccc2c(SCc3ccc(NCC(=O)c4ccc5ccccc5c4)cc3)ccnc2c1 [Compound 38, 4-[4-(2-β-Naphtyl-2-oxoethylamino)benzylthio]-7-methylthioquinoline]	0.2 (≈ 0.416 µM)
CNc1ccc(CSc2ccnc3cc(SC)ccc23)cc1C [Compound 39, 4-(3-Methyl-4-methylaminobenzylthio)-7-methylthioquinoline]	0.1 (≈ 0.294 µM)
CSc1ccc2c(SCc3ccc(N(C)C)c(C)c3)ccnc2c1 [Compound 40, 4-(3-Methyl-4-dimethylaminobenzylthio)-7-methylthioquinoline]	0.2 (≈ 0.564 µM)
CSc1ccc2c(SCc3ccc(N(C)C)c(N(C)C)c3)ccnc2c1 [Compound 41, 4-[3,4-Bis(dimethylamino)benzylthio]-7-methylthioquinoline]	0.2 (≈ 0.521 µM)
CSc1ccc2c(SCc3ccc(N4CCOCC4)cc3)ccnc2c1 [Compound 43, 4-(4-Morpholinobenzylthio)-7-methylthioquinoline]	0.1 (≈ 0.261 µM)
CSc1ccc2c(SCc3ccc(N4CCCC4)cc3)ccnc2c1 [Compound 44, 4-[4-(1-Pyrrolidinyl)benzylthio]-7-methylthioquinoline]	0.2 (≈ 0.546 µM)
CSc1ccc2c(SCc3ccc(N4CCCCC4)cc3)ccnc2c1 [Compound 45, 4-(4-Piperidinobenzylthio)-7-methylthioquinoline]	0.2 (≈ 0.526 µM)
CSc1ccc2c(SCc3ccc(N4CCN(C)CC4)cc3)ccnc2c1 [Compound 46, 4-[4-(4-Methyl-1-piperazinyl)benzylthio]-7-methylthioquinoline]	0.1 (≈ 0.253 µM)
CSc1ccc2c(SCc3ccc(N(CCOC(C)=O)CCOC(C)=O)cc3)ccnc2c1 [Compound 47, 4-[4-[Bis(2-acetoxyethyl)amino]benzylthio]-7-methylthioquinoline]	0.2 (≈ 0.413 µM)
CSc1ccc2c(SCc3ccc(N(CCO)CCOC(C)=O)cc3)ccnc2c1 [Compound 48, 4-[4-[N-(2-Acetoxyethyl)-2-hydroxyethylamino]benzylthio]-7-methylthioquinoline]	0.1 (≈ 0.226 µM)
CC(C)(C)OC(=O)N1CCN(CCc2ccc(C(=O)CSc3ccnc4ccccc34)cc2)CC1 [Compound 50, 4-[2-[4-[2-(4-tert-Butoxycarbonyl-1-piperazinyl)ethyl]-phenyl]-2-oxoethylthio]quinoline]	0.05 (≈ 0.102 µM)
Cl.O=C(CSc1ccnc2ccccc12)c1ccc(N2CCNCC2)cc1 [Compound 51, 4-[2-[4-(1-Piperazinyl)phenyl]-2-oxoethylthio]quinoline hydrochloride]	0.2
COc1cc(C(=O)CSc2ccnc3ccccc23)ccc1OCC1CO1 (centres unmarked) [Compound 57, 4-[2-[3-Methoxy-4-(2,3-epoxypropoxy)phenyl]-2-oxoethylthio]quinoline]	0.39 (≈ 1.02 µM)
OC(CSc1ccnc2ccccc12)c1ccc2ccccc2c1 (centres unmarked) [Compound 61, 4-[2-(2-Naphtyl)-2-hydroxyethylthio]quinoline]	0.2 (≈ 0.603 µM)
CSc1ccc2c(SCc3ccc(N4CCN(C=O)CC4)cc3)ccnc2c1 [Compound 63, 4-[4-(4-Formyl-1-piperazinyl)benzylthio]-7-methylthioquinoline]	0.1 (≈ 0.244 µM)
CC(C)(C)OC(=O)N1CCN(c2ccc(C(=O)CSc3ccnc4ccc(F)cc34)cc2)CC1 [Compound 73, 4-[2-[4-(4-tert-Butoxycarbonyl-1-piperazinyl)phenyl]-2-oxoethylthio]-6-fluoroquinoline]	0.0062 (≈ 0.0129 µM)
CC(C)(C)OC(=O)N1CCC(c2ccc(C(=O)CSc3ccnc4ccccc34)cc2)CC1 [Compound 75, 4-[2-[4-(1-tert-Butoxycarbonyl-4-piperidinyl)phenyl]-2-oxoethylthio]quinoline]	0.0125 (≈ 0.027 µM)

Continued, values first:

MIC [µg/mL]	SMILES
0.1 (≈ 0.281 µM)	O=C(CSc1ccnc2ccccc12)c1ccc(-c2ccccc2)cc1 [Compound 4, 4-[2-(p-Biphenyl)-2-oxoethylthio]quinoline]
0.05 (≈ 0.147 µM)	COc1ccc(C(=O)CSc2ccnc3ccccc23)c(OC)c1 [Compound 6, 4-[2-(2,4-Dimethoxyphenyl)-2-oxoethylthio]quinoline]
0.05 (≈ 0.135 µM)	COc1cc(C(=O)CSc2ccnc3ccccc23)cc(OC)c1OC [Compound 17, 4-(2-(3,4,5-Trimethoxyphenyl)-2-oxoethylthio]quinoline]
0.025 (≈ 0.0539 µM)	O=C(CSc1ccnc2ccccc12)c1ccc(NCc2ccccc2)c(Br)c1 [Compound 20, 4-[2-(4-Benzylamino-3-bromophenyl)-2-oxoethylthio]-quinoline]
0.0008 (≈ 0.00179 µM)	CC(C)(C)C(=O)N1CCC(c2ccc(C(=O)CSc3ccnc4ccccc34)cc2)CC1 [Compound 28, 4-[2-[4-(1-Pivaloyl-4-piperidinyl)phenyl]-2-oxoethylthio]-quinoline]
0.0008 (≈ 0.00191 µM)	CC(C)CN1CCN(c2ccc(C(=O)CSc3ccnc4ccccc34)cc2)CC1 [Compound 29, 4-[2-[4-(4-Isobutyl-1-piperazinyl)phenyl]-2-oxoethylthio]quinoline]
0.0008 (≈ 0.00179 µM)	CC(C)(C)C(=O)N1CCN(c2ccc(C(=O)CSc3ccnc4ccccc34)cc2)CC1 [Compound 52, 4-[2-[4-(4-Pivaloyl-1-piperazinyl)phenyl]-2-oxoethylthio]quinoline]
0.025 (≈ 0.0477 µM)	COc1ccc(C=CC(=O)N2CCN(c3ccc(C(=O)CSc4ccnc5ccccc45)cc3)CC2)cc1 [Compound 53, 4-[2-[4-[4-(4-Methoxycinnamoyl)-1-piperazinyl]phenyl]-2-oxoethylthio]quinoline]
0.0016 (≈ 0.00334 µM)	CCN(CC)C(=S)N1CCN(c2ccc(C(=O)CSc3ccnc4ccccc34)cc2)CC1 [Compound 54, 4-[2-[4-(4-Diethylaminothiocarbonyl-1-piperazinyl)-phenyl]-2-oxoethylthio]quinoline]
0.0062 (≈ 0.0151 µM)	CCCCCCOc1ccc(C(=O)CSc2ccnc3ccccc23)c(OC)c1 [Compound 55, 4-[2-[2-Methoxy-4-hexyloxyphenyl]-2-oxoethylthio]-quinoline]
0.0125 (≈ 0.0301 µM)	COc1ccc(COc2ccc(C(=O)CSc3ccnc4ccccc34)cc2)cc1 [Compound 56, 4-[2-[4-(4-Methoxybenzyloxy)phenyl]-2-oxoethylthio]-quinoline]
0.0031 (≈ 0.00696 µM)	COc1ccc(COc2ccc(C(=O)CSc3ccnc4ccccc34)cc2OC)cc1 [Compound 58, 4-[2-[3-Methoxy-4-(4-methoxybenzyloxy)phenyl]-2-oxoethylthio]quinoline]
0.0004 (≈ 0.00078 µM)	CC(C)(C)CN1CCN(c2ccc(C(=O)CSc3ccnc4ccccc34)cc2Br)CC1 [Compound 66, 4-[2-[3-Bromo-4-(4-neopentyl-1-piperazinyl)phenyl]-2-oxoethylthio]quinoline]
0.0062 (≈ 0.012 µM)	O=C(CSc1ccnc2ccccc12)c1ccc(N2CCN(c3ccc(Br)cc3)CC2)cc1 [Compound 67, 4-[2-[4-[4-(4-Bromophenyl)-1-piperazinyl]phenyl]-2-oxoethylthio]quinoline]
0.0016 (≈ 0.00362 µM)	O=C(CSc1ccnc2ccccc12)c1ccc(N2CCN(c3ncccn3)CC2)cc1 [Compound 68, 4-[2-[4-[4-(2-Pyrimidyl)-1-piperazinyl]phenyl]-2-oxoethylthio]quinoline]
0.025 (≈ 0.0637 µM)	CCCCCCCNc1ccc(C(=O)CSc2ccnc3ccccc23)cc1 [Compound 69, 4-[2-[4-(Heptylamino)phenyl]-2-oxoethylthio]quinoline]
0.05 (≈ 0.123 µM)	CC(C)CN(C)CC(=O)Nc1ccc(CCSc2ccnc3ccccc23)cc1 [Compound 70, 4-[2-[4-[2-(N-Isobutyl-N-methylamino)acetylamino]-phenyl]ethylthio]quinoline]
0.05 (≈ 0.119 µM)	CC(C)CN1CC(=O)N(c2ccc(C(=O)CSc3ccnc4ccccc34)cc2)C1 [Compound 71, 4-[2-[4-(3-Isobutyl-5-oxo-1-imidazolidinyl)phenyl]-2-oxoethylthio]quinoline]
0.05 (≈ 0.123 µM)	CC(C)CN(C)CCN(C)c1ccc(CCSc2ccnc3ccccc23)cc1 [Compound 72, 4-[2-[4-[N-[2-(N-Isobutyl-N-methylamino)ethyl]-N-methylamino]phenyl]ethylthio]quinoline]
0.0008 (≈ 0.0018 µM)	CC(C)(C)C(=O)N1CC=C(c2ccc(C(=O)CSc3ccnc4ccccc34)cc2)CC1 [Compound 74, 4-[2-[4-(1-Pivaloyl-1,2,5,6-tetrahydropyrid-4-yl)phenyl]-2-oxoethylthio]quinoline]
